Experimental findings from US10556994B2, “Strictly segmented thermoplastic elastomers as biodegradable biomaterials” (SyMO-Chem B.V., priority 2014, dated 2020) are described below.

Like-named read-outs stand apart in the source and are kept apart here.

A short description of series [1]: Solubility in PBS of hard block degradation products. In kind it is physicochemical. Particulars: for solubility: aqueous buffer. The text has this:
The variety of the biodegradation products of the [AB]n materials of this invention is limited, where this is due to the simple and defined molecular structures of the [AB]n materials with only one type of soft block A and only one type of hard block B for a particular [AB]n material. […] Degradation products from the hard block are lower molecular weight molecules such as the molecules shown in Examples 25 and 26 (not: molecules 26E, 26F, 26G).

Series [2] concerns 3T3 mouse fibroblasts. Put plainly: MTT cytotoxicity assay. Particulars: cells treated with medium exposed to the material, relative to untreated medium. Background: Tetrazolium dyes change colour on reduction, which living cells bring about.
The subject of series [3] is 3T3 mouse fibroblasts.

The term solubility denotes the concentration that dissolves in the medium under given conditions. Read a high solubility as much dissolved substance. `NCCCCCNC(=O)CCCCCN` [Example 25C, 6-amino-N-(5-aminopentyl)hexanamide] registered a solubility in series [1] greater than 5000 µg/mL.

Regarding `NCCCCNC(=O)CCCCC(=O)NCCCCN` [Example 25D, N^1,N^6-bis(4-aminobutyl)adipamide], the solubility in series [1] was greater than 5000 µg/mL. Same read-out and setting: next, `NCCCCCCNC(=O)NCCCCCCN` [Example 25E, 1,3-bis-(6-aminohexyl)urea]: greater than 5000 µg/mL. With `O=C(O)CCCCCNC(=O)NCCCCNC(=O)NCCCCCC(=O)O` [Example 26B], the “solubility in PBS” value in series [1] was greater than 1000 µg/mL. The term cell viability denotes a read-out of living cells in per cent, often relative to untreated cells. For the molecule Triton X-100, the cell viability in series [2] stood at 0%. For “poly(hexyl carbonate-random-co-ε-caprolactone) bisurea [Example 32]”, the cell viability in series [3] is listed as 60-116%.
